The nature of series [1]: Beagle pharmacokinetic study (ig/sc/iv, plasma LC/MS/MS). The format is in vivo, beagles. The settings on record: for AUC(0-t) / half-life / Cmax: dog, plasma; for AUC(0-t): read-out: Area under curve AUC0-72; for half-life: read-out: Half life T½ (converted); for Cmax: read-out: Plasma concentration Cmax. As to the method: Taking beagles as test animals, and the drug concentrations in dog plasma at various times after intragastric administration (ig)/subcutaneous injection (sc)/intravenous injection (iv) administration of the compound of Example 1-1 and Positive Control Example 1 were measured by using LC/MS/MS method. The pharmacokinetic performance in beagles of the compounds of the present disclosure was studied and the pharmacokinetic profile thereof was evaluated.
18 non-naïve beagles (999M-004, medicilon) with 7-12 kg, every 3 of which were in one group.
The intragastric administration group: a certain amount of the compounds was weighed, ethanol with a volume of 5% of the final volume, 20% PG, 45% PEG300 and 30% deionized water were added (the pH was adjusted to be about 2 with 0.01 N HCl), and the reaction mixture was subjected to ultrasonic stirring for uniform mixing to give an administration solution at a concentration of 0.8 mg/mL.
The subcutaneous injection administration group: a certain amount of the compounds was weighed, 2% aqueous poloxamer 188 solution with a proper volume was added, and the reaction mixture was subjected to ultrasonic stirring for uniform mixing to give a suspension administration solution at a concentration of 200 mg/mL.
The intravenous administration group: a certain amount of the compounds was weighed, 5% volume of DMSO, 30% PG, 30% PEG400 and 35% volume of normal saline were added, and the reaction mixture was subjected to vortex ultrasonic stirring for uniform mixing to give an administration solution at a concentration of 0.5 mg/mL.
Beagles were intragastrically administered with the compounds after fasting overnight, at a dose of 4.0 mg/kg and a volume of 5.0 mL/kg.
Beagles were subcutaneously injected with the compounds after fasting overnight, at a dose of 6.0 mg/kg and a volume of 0.03 mL/kg.
Beagles were intravenously injected with the compounds after fasting overnight, at a dose of 1.0 mg/kg and a volume of 2 mL/kg.
Beagles were intragastrically administered with the compound of Example 1-1/Positive Control Example 1, and 1 mL of blood was collected from the orbit before administration and at 0.25 h, 0.5 h, 1.0 h, 2.0 h, 4.0 h, 6.0 h, 8.0 h, 12.0 h, 24 h, 32 h, 48 h, 56 h and 72 h after administration, respectively, and placed in EDTA-K2 anticoagulant blood collection tubes, plasma was centrifuged (centrifugal force: 2200 g, centrifugation time: 10 min, 2-8° C.), and stored at −80° C., and food intake was resumed 3 h after administration.
The compound of Example 1-1/Positive Control Example 1 was subcutaneously injected to beagles, and 1 mL of blood was collected before administration and at 1.0 h, 3.0 h, 8.0 h, 24 h, 48 h, 72 h, 96 h, 168 h, 336 h, 432 h and 504 h after administration, respectively, and placed in EDTA-K2 anticoagulant blood collection tubes, plasma was centrifuged (centrifugal force: 2200 g, centrifugation time: 10 min, 2-8° C.), and stored at −80° C., and food intake was resumed 3 h after administration.
The content of the compound to be tested in the plasma of beagles was determined after the intragastric administration of the compounds at different concentrations: 20 μL of the plasma in beagles at each time after administration was taken, 200 μL of methanol containing internal standard (100 ng/mL) was added, the reaction mixture was subjected to vortex mixing for 1 min, and centrifuged for 7 min (centrifugal force: 18000 g), and 1 μL of the supernatant was taken from the plasma sample for LC/MS/MS analysis. […]

Series [2] in a line: Monkey pharmacokinetic study (iv, plasma LC/MS/MS). The format is in vivo, cynomolgus monkeys. Particulars: cynomolgus monkey, intravenous injection, 1 mg/kg. As to the method:
Taking cynomolgus monkeys as test animals and the drug concentrations in monkey plasma at various times after intravenous injection (iv) of the compounds of Example 1-1 and Positive Control Example 1 were measured by using LC/MS/MS method. The pharmacokinetic performance in cynomolgus monkeys of the compounds of the present disclosure was studied and the pharmacokinetic profile thereof was evaluated.
6 non-naïve cynomolgus monkeys (999M-004, medicilon) with 2-5 kg, every 3 of which were in one group.
A certain amount of the compounds was weighed, 5% volume of DMSO, 30% PG, 30% PEG400 and 35% volume of normal saline were added, and the reaction mixture was subjected to vortex ultrasonic stirring for uniform mixing to give a clean administration solution at a concentration of 0.5 mg/mL.
Monkeys were intravenously injected with the compounds after fasting overnight, at a dose of 1.0 mg/kg and a volume of 2 mL/kg.
The compound of Example 1-1/Positive Control Example 1 was intravenously injected to monkeys, and 1 mL of blood was collected through femoral vein before administration and at 5 min, 0.25 h, 0.5 h, 1.0 h, 2.0 h, 4.0 h, 8.0 h, 12.0 h, 24 h, 32 h, 48 h, 56 h and 72 h after administration, respectively, and placed in EDTA-K2 anticoagulant blood collection tubes, plasma was centrifuged (centrifugal force: 2200 g, centrifugal time: 10 min, 2-8° C.), and stored at −80° C., and food intake was resumed 3 h after administration.

Setting [3] is: po, intragastric administration, 4 mg/kg.
Where [4] appears, read: sc, subcutaneous injection, 6 mg/kg.

Like-named read-outs stand apart in the source and are kept apart here.

In general, half-life refers to the time in which the quantity being followed falls by half. As to `CC(C)(C#Cc1ccc(-c2ccc(Cl)c3c(NS(C)(=O)=O)nn(CC(F)(F)F)c23)c([C@H](Cc2cc(F)cc(F)c2)NC(=O)Cn2nc(C(F)(F)F)c3c2C(F)(F)[C@@H]2C[C@H]32)n1)S(C)(=O)=O` [Positive Control Example 1, N—((S)-1-(3-(4-chloro-3-(methylsulfonamido)-1-(2,2,2-trifluoroethyl)-1H-indazol-7-yl)-6-(3-methyl-3-(methylsulfonyl)but-1-yn-1-yl)pyridin-2-yl)-2-(3,5-difluorophenyl)ethyl)-2-((3bS,4aR)-5,5-difluoro-3-(trifluoromethyl)-3b,4,4a,5-tetrahydro-1H-cyclopropa[3,4]cyclopenta[1,2-c]pyrazol-1-yl)acetamide, reference compound], the AUC(0-t) came to 14700 ng·h/mL in series [1] (intravenous injection, 1 mg/kg); 11200 ng·h/mL in series [1] (setting [3]); 17700 ng·h/mL in series [1] (setting [4]); 2130 ng·h/mL in series [2] (plasma, read-out: Area under curve AUC0-72). Also, the half-life in series [1] (intravenous injection, 1 mg/kg) was 13.7 h; in series [1] (setting [3]), 23 h. Further, the Cmax in series [1] (intravenous injection, 1 mg/kg) worked out at 1110 ng/mL; in series [1] (setting [3]) it was 414 ng/mL; in series [1] (setting [4]) it was 54.6 ng/mL. In addition, the “Clearance CLz/F” value in series [1] (intravenous injection, 1 mg/kg) turned out to be 1.1 mL/min/kg; in series [2], 7.8 mL/min/kg.

Values taken from US12428396B2, “Fused pyridine ring derivative, preparation method therefor, and pharmaceutical use thereof” (priority 2019, dated 2025).
